# Tests used:
# [1] = system: hepatic NKT cells; assay: In vivo bile acids feeding, hepatic NKT cell levels; conditions: ABX-administered mice, oral gavage 6 mg/15 g body weight at 48, 24 and 16 hrs
# Excerpt: Mice were kept on ABX cocktail and fresh ABX was replaced every other day. Mice were fed with bile acids by oral gavage 48, 24 and 16 hrs prior to sacrifice.
# [2] = system: CXCL16; assay: CXCL16 mRNA in SK-HEP1 cells administered bile acids; assay type: cell-based, human; conditions: 24 hours
# Excerpt: FIG. 34A is a dot plot showing CXCL16 mRNA levels measured by real-time PCR in SK-HEP1 cells administered different bile acids, in accordance with embodiments of the invention. n=6, p<0.05, one-way ANOVA.
# (§1) Primary mice liver sinusoidal endothelia cells were isolated as previously described (Limmer et al., Nat. Med., 6: 1348-1354 (2000), incorporated by reference herein). Briefly, mice were CO2 euthanized, and then the portal vein was cannulated, and the liver was perfused with 0.05% collagenase in Ca^2+ deprived medium. Liver cells were dissociated, and parenchymal cells were killed by incubation in 0.04% collagenase in Gey's balanced salt solution at 37° C. for 15 minutes. Then density gradient centrifugation was performed using Nycodenz solution at the final solution of 1.089 g/cm^3. Liver sinusoidal endothelial cells (LSEC) were isolated using anti-LSEC microbeads (Miltenyi, Bergisch Gladbach, Germany) according to the manufacturer's instructions. LSECs or the human SK-HEP1 cell line (ATCC, HTB-52) were administered different bile acids for 24 hours. Gene expression was analyzed by real-time PCR. Taurocholic acid (TCA), chenodeoxycholic acid (CDCA), deoxycholic acid (DCA), and taurodeoxycholic acid (TDCA) were purchased from Sigma (now Millpore-Sigma, St. Louis, Mo., USA). […]
# [3] = system: CXCL16; assay: CXCL16 mRNA in primary murine LSECs administered bile acids; assay type: cell-based, mice; conditions: primary murine LSECs in vitro, 24 hours
# Excerpt: FIG. 28E is a dot plot showing CXCL16 mRNA levels of isolated LSECs administered different bile acids, in accordance with embodiments of the invention. n=5, p<0.05, one-way ANOVA.
# FIG. 28F is a dot plot showing CXCL16 mRNA levels of isolated LSECs administered a combination of T-b-MCA with T-w-MCA or ω-MCA. n=5, p<0.05, one-way ANOVA.
# as §1, with “PCR.” for “PCR. Taurocholic acid (TCA), chenodeoxycholic acid (CDCA), deoxycholic acid (DCA), and taurodeoxycholic acid (TDCA) were purchased from Sigma (now Millpore-Sigma, St. Louis, Mo., USA).”
# [4] = system: hepatic NKT cells; assay: Flow cytometry of liver and spleen immune cell subsets of treated mice; assay type: in vivo; conditions: single antibiotic; for hepatic CD4+ or CD8+ T cells: FIGS. 29H and 29I; for hepatic NKT cells: naïve C57BL/6 mice
# Protocol: Cells were surface-labelled with the indicated antibodies for 15 min at 4° C. Intracellular staining using a Foxp3/transcription factor staining buffer set (eBioscience, now part of ThermoFisher Scientific, Waltham, Mass., USA) was used according the manufacturer's instructions. Flow cytometry was performed on a BD LSRFortessa platform (BD Biosciences, San Jose, Calif., USA) and results were analyzed using FlowJo software version 9.3.1.2 (TreeStar, Ashland, Oreg., USA). Dead cells were excluded by using live/dead fixable near-IR dead cell staining kit (ThermoFisher Scientific).
# The following antibodies were used for flow cytometry analysis: anti-TCRβ-BV510 (clone H57-587, Biolegend, San Diego, Calif., USA), PBS57/CD1d-tetramer-APC (NIH core facility, Bethesda, Md., USA), anti-CXCR6-FITC (clone SA051D1, Biolegend), anti-CD3-PE (clone 17A2, Biolegend), anti-CD4-PE (clone RM4-5, Biolegend), anti-CD4-Alexa Fluor 700 (clone GK1.5, Biolegend), anti-CD8-BV210 (clone 53-61 Biolegend), anti-CD19-PerCP/Cy5.5 (clone eBiolD3, eBioscience), anti-CD49b (clone DX5, eBioscience), anti-TCRγ/δ-PE, (clone GL3, BD pharmingen, BD Biosciences), anti-CD11b-BV421 (clone M1/70, Biolegend), anti-Ly6G-Alexa Fluor 700 (clone 1A8, Biolegend), anti-Ly6C-APC (clone HK1.4, Biolegend), anti-CD44-PE/Cy7 (clone IM7, eBioscience), anti-CD62L-PerCP/Cy5.5 (MEL-14, Biolegend), anti-CD69-Pacific blue (clone H1.2F3, Biolegend), anti-CD25-FITC (clone 7D4, BD pharmingen), anti-4-1BB-PE (clone 17B5, Biolegend), anti-Foxp3-Alexa Fluor 488 (clone 22F6, Biolegend), anti-Tbet-Pacific Blue (clone 4B10, Biolegend), anti-RORγ-PE (clone B2D, eBioscience), anti-PLZF-PerCP/Cy5.5 (clone 9E12, Biolegend), anti-CD1d-PE (clone 1B1, eBioscience), anti-IFNγ-PE (clone XMG1.2, BD Biosciences), and anti-TNFα-PerCP/Cy5.5 (clone MP6-XT22, Biolegend).
# The following markers were used for identifying different immune cell subsets: TCRβ^+CD1d-Teteramer^+ for NKT cells, CD3^+CD4^hi for hepatic CD4^+ T cells, CD3^+CD8^+ for CD8^+ T cells, CD3^−CD19^+ for B cells, CD3^−CD49b^+ for NK cells, CD3^+TCRγ/δ^+ for γ/δ T cells, CD11b^+Ly6G^+Ly6C^lo for G-MDSC. Absolute numbers were calculated by multiplying frequencies obtained from flow cytometry by the total live mononuclear cell count, and then divided by liver weight.
# [5] = reported; cited from earlier work
# [6] = oral vancomycin, cited from earlier work
# [7] = system: Clostridum Cluster XIVa; assay: Stool levels of Clostridium Cluster XIVa by real-time PCR; assay type: in vivo, mice; conditions: single antibiotic administration
# Protocol: FIG. 31 is a dot plot showing the stool levels of Clostridum Cluster XIVa from single antibiotic administration measured by real-time PCR. Mice were administered vancomycin, neomycin, cefoparazone or H2O. n=4 for H2O, 10 for vancomycin, 5 for neomycin, p<0.05, one-way ANOVA.
# The 7α-dehydroxylation reaction is the most quantitatively important process performed by the gut bacteria in the production of secondary bile acids. This multistep biochemical process is restricted to a narrow phylogenetic group of gram-positive bacterial species belonging to the Clostridium cluster XIV.
# [8] = system: stool bacteria; assay: Stool bacteria analysis by 16S rRNA sequencing; assay type: in vivo, mice
# Protocol: FIG. 33A is a line graph showing stool bacteria analysis performed by 16S rRNA sequencing, in accordance with embodiments of the invention. Five week old mice were administered vancomycin for one week. Then vancomycin was stopped, and mice were given oral gavage of C. scindens or vehicle (cessation). Measurements were taken twenty-four hours after gavage. Alpha diversity is shown.
# FIG. 33B is a dot plot showing stool bacteria analysis performed by 16S rRNA sequencing, in accordance with embodiments of the invention. Five week old mice were administered vancomycin for one week. Then vancomycin was stopped, and mice were given oral gavage of C. scindens or vehicle (cessation). Measurements were taken twenty-four hours after gavage. Beta diversity is shown.
# Mice were fed with vancomycin in drinking water (Hospira, 0.5 g/L) for one week. Fresh antibiotic water was replaced every other day. One week later vancomycin was stopped, and the mice were given oral gavage of 10^9 C. scindens or vehicle (anaerobic glycerol) every day for 5 days. C. scindens was purchased from ATCC (35704), and grown under anaerobic conditions. One day after gavage, the colonization of C. scindens were confirmed by real-time PCR using primers specific for C. scindens.
# Mouse stool DNA extraction and 16S V4 tregion amplification were performed on the liquid handling robots (epMotion 5075 and epMotion 5073, Eppendorf, Hamburg, Germany). The V4 region of the 16S rDNA gene (515F-806R) was sequenced, generating partially overlapping, paired-end reads on the Illumina MiSeq platform (Illumina, San Diego, Calif., USA). After quality control filtering, a total of 3,979,728 reads were processed with an average of 132,657 reads per sample. The demultiplexed FASTQ files containing the 16S rRNA gene sequences were filtered for chimeric sequences using the USEARCH (Edgar, Bioinformatics, 26: 2460-2461 (2010), incorporated by reference herein; version 8.1.1831) utility's UCHIME implementation and the ‘gold’ database (version microbiomeutil-r20110519). The reads were then binned into Operational Taxonomic Units (OTUs) at 97% similarity using USEARCH's cluster_otus command. The OTUs thus obtained were classified and aligned using QIIME (Caporaso et al., Nat. Methods, 7: 335-336 (2010), incorporated by reference herein; version 1.9.1) scripts. The assign_taxonomy.py script was used to assign taxonomy using the default RDP method (Wang et al., Appl. Environ. Microbiol., 73: 5261-5267 (2007), incorporated by reference herein) and the default GreenGenes database (DeSantis et al., Appl. Environ. Microbiol., 72: 5069-5072 (2006), incorporated by reference herein). This provided insight into the larger trends at higher taxonomic levels (such as order Clostridiales).
# Next, the possible role of Clostridium species on liver NKT cell accumulation was tested in a colonization experiment. Clostridium scindens was chosen because it is commonly found in both mice and human and has a conserved bai (“bile acid inducible”) gene operon for the 7α-dehydroxylation reaction. Mice were fed with vancomycin for one week to induce hepatic NKT cells, then vancomycin was stopped, and the mice were given C. scindens or vehicle. The successful colonization with Clostridium scindens was confirmed (FIG. 32). One day after oral gavage, fecal bacterial were analyzed by 16S rRNA sequencing (FIGS. 33A and 33B, Table 1).
# [9] = fecal bacteria, one day after oral gavage
Molecule,cxcl16 mRNA expression [2],hepatic CD4+ or CD8+ T cells [4],hepatic NKT cells [4],bile acids in the gut [5],Clostridium in stool [7],other results
"C[C@H](CCC(=O)O)[C@H]1CC[C@H]2[C@@H]3[C@H](O)C[C@@H]4C[C@H](O)CC[C@]4(C)[C@H]3CC[C@]12C [CDCA, chenodeoxycholic acid]",induced,–,–,–,–,hepatic NKT accumulation [1]: enhanced NKT cell accumulation
"C[C@H](CCC(=O)NCCS(=O)(=O)O)[C@H]1CC[C@H]2[C@@H]3[C@@H](O)[C@@H](O)[C@@H]4C[C@H](O)CC[C@]4(C)[C@H]3CC[C@]12C [T-β-MCA, Tauro-β-muricholic acid]",–,–,–,–,–,cxcl16 mRNA expression [3]: induced
"C[C@H](CCC(=O)NCCS(=O)(=O)O)[C@H]1CC[C@H]2[C@@H]3[C@H](O)C[C@@H]4C[C@H](O)CC[C@]4(C)[C@H]3C[C@H](O)[C@]12C [TCA, Taurocholic acid]",induced,–,–,–,–,–
CCN1CCN(C(=O)N[C@@H](C(=O)N[C@@H]2C(=O)N3C(C(=O)O)=C(CSc4nnnn4C)CS[C@H]23)c2ccc(O)cc2)C(=O)C1=O [cefoperazone],–,No significant changes,increase of liver NKT cells,deplete secondary bile acids and increase primary bile acids in the gut,–,–
CN[C@H](CC(C)C)C(=O)N[C@H]1C(=O)N[C@@H](CC(N)=O)C(=O)N[C@H]2C(=O)N[C@H]3C(=O)N[C@H](C(=O)N[C@H](C(=O)O)c4cc(O)cc(O)c4-c4cc3ccc4O)[C@H](O)c3ccc(c(Cl)c3)Oc3cc2cc(c3O[C@@H]2O[C@H](CO)[C@@H](O)[C@H](O)[C@H]2O[C@H]2C[C@](C)(N)[C@H](O)[C@H](C)O2)Oc2ccc(cc2Cl)[C@H]1O [vancomycin],–,No significant changes,sufficient to increase hepatic NKT cells,deplete secondary bile acids and increase primary bile acids in the gut,depleted Clostridium,"fecal secondary bile acids ([6]; obese individuals): decreased fecal secondary bile acids; primary bile acids in plasma ([6]; postprandial): postprandial increase in primary bile acids in plasma; Bacteroidales [8, 9]: 0.0%; Burkholderiales [8, 9]: 4.4%; Clostridiales [8, 9]: 3.9%; Enterobacteriales [8, 9]: 10.7%; Lactobacillales [8, 9]: 43.7%; Verrucomicrobiales [8, 9]: 34.3%; change of stool bacteria populations, in words ([8]; vancomycin compared to H2O group, C. scindens gavage after vancomycin): reduction of Clostridiales and Bacteroidales but an expansion of Verrucomicrobiales"
neomycin,–,No significant changes,little effect,–,could not remove Clostridium,–

# — patent publication US11771737B2, “Treating or preventing adverse liver conditions” (priority 2017, dated 2023)
